We go through 7 compounds from patent US10207984B2, “Cyclopropyl derivatives and methods of use” (Emory University, priority 2011, dated 2019).

Data set [1] concerns the target T1, norepinephrine transporters (NET) (Rattus norvegicus, UniProt Q9WTR4).
T1 construct: Whole rat brains (minus cerebellum) are homogenized; from tissue; host or cells: rat whole brain minus cerebellum, membranes
As to the kind of experiment: NET binding, displacement of [3H]nisoxetine in rat brain membranes. As for the experimental part:
(§1) Binding of analogs at norepinephrine transporters (NET) was determined by displacement of [^3H]nisoxetine binding. […] The membranes are resuspended in nisoxetine assay buffer (300 mM NaCl, 5 mM KCl, 50 mM Tris-HCl, pH 7.4) and centrifuged again before final resuspension in volumes of buffer. Assay tubes contain 750 μl of brain membranes, [^3H]nisoxetine (0.7 nM) together with unlabeled drugs dissolved in nisoxetine assay buffer to a final volume of 1 ml. Tubes are incubated for 40 min at 25° C., and the reaction is terminated by rapid filtration with 3×4 mL of cold Tris buffer through Whatman GF/B glass fiber filters which have been pre-soaked in Tris buffer containing 0.1% BSA for at least 1 h. Non-specific binding is determined in the presence of 1 μM desipramine. In [^3H]citalopram and [^3H]nisoxetine binding assays, radioactivity is determined by liquid scintillation spectrophotometry (efficiency: 50%) after eluting filters overnight in 5 mL of Ecolite scintillation fluid (ICN). IC50 values are calculated from displacement curves using 7-10 concentrations of unlabeled analogs. […] For [^3H]paroxetine and [^3H]nisoxetine binding assays, Ki values are calculated using the Cheng-Prusoff equation.
On the technique in general: Displacement assays read how much labelled ligand stays bound in the presence of the test substance.

The target of data set [2] is T2, 5-HT transport (SERT) sites (Rattus norvegicus, UniProt P31652).
T2 construct: Tissue is obtained from frozen rat brains as described above; from tissue; host or cells: rat frontal cortex membranes (frozen rat brains)
T2 sequence (P31652 whole entry): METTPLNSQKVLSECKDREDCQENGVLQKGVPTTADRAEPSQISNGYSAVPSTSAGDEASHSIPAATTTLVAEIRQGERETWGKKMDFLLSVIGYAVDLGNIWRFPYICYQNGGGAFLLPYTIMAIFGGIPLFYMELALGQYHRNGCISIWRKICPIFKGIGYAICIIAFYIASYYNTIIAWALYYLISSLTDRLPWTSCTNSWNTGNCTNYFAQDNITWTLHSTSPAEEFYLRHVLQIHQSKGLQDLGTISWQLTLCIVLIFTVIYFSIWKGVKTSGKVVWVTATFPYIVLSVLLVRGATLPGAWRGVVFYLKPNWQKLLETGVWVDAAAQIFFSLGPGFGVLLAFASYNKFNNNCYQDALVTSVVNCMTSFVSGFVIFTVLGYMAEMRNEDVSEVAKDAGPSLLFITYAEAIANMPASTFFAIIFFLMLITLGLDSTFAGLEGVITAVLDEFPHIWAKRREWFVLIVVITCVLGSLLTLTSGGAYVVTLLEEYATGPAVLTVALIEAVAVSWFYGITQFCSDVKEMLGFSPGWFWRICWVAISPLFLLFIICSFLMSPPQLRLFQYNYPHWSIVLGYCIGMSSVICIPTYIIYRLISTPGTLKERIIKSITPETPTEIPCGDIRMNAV
In words: SERT binding, displacement of [3H]citalopram in rat frontal cortex membranes. The method, then: Affinities of analogs at 5-HT transport (SERT) sites are determined by displacement of [^3H] citalopram binding in membranes from rat frontal cortex. […] Assay tubes contain 50 mg (original wet weight) of membranes, 0.4 nM [^3H]citalopram, and various concentrations of unlabeled drugs dissolved in citalopram assay buffer in a final volume of 2 ml. Tubes are incubated for 60 min at 25° C., and the reaction is terminated by rapid filtration with 3×4 mL of cold Tris buffer through Whatman GF/B glass fiber filters pre-soaked in Tris buffer containing 0.1% BSA for at least 1 h. Non-specific binding is determined in the presence of 10 μM fluoxetine.
as §1

Another data set in a line: Log-P (Table 1). The data set is classed as physicochemical.
In a further data set the test system is SNL rats. In words: Mechanical allodynia (paw withdrawal threshold) in L5/L6 spinal nerve ligation (SNL) model of neuropathic pain. The class given is in vivo, rat. Conditions: for anti-allodynic effect (in words): i.t., clonidine 10 μg, HD-283 30 μg, HD-286 and HD-288 up to 3 μg. The text has this:
A 3 cm incision was made in the back using the iliac crests as a midpoint. An incision was then made in the underlying muscle, which was then separated by both sharp and blunt dissection to expose the left transverse process of the fifth lumbar vertebra. The transverse process was removed using bone microrongeurs, and the fifth lumbar nerve was exteriorized from underneath the spinal column using a small metal hook and ligated using 4.0 silk suture with sufficient pressure to cause the nerve to bulge on each side of the ligature. The sixth lumbar nerve was exteriorized from underneath the iliac bone at the sciatic notch and ligated in a similar manner. All muscle layers were sutured using 4.0 chromic gut, the skin was sutured using 4.0 nylon suture.
The animal is placed in a stereotaxic frame to immobilize the head under pentobarbital anesthesia. The animal's body is lifted and supported to render the spinal column straight and level and the animal's head is placed downward such the top of the skull forms a 90° angle with the spinal column. A small incision is placed at the back of the neck and the underlying muscles are blunt dissected to reveal the atlanto-occipital membrane. A small incision is placed in the atlanto-occipital membrane through which a 32 ga polyethylene catheter is inserted that is 8 cm in length. The catheter is anchored to the neck muscles with 4.0 silk suture and the exterior wounds are closed with 4.0 nylon suture.
All compounds were dissolved in 0.9% (wt/vol) saline, pH 7.4 and administered through the intrathecal catheter in a volume of 5 μl, followed by 15 μl of 0.9% saline to flush the catheter.
Paw withdrawal threshold was determined before and at selected time points following intrathecal drug administration using calibrated von Frey filaments. The animals are placed in elevated Plexiglas chambers with wire mesh floors and acclimated for a minimum of 30 minutes. Beginning with a filament calibrated to bend with a force of 2 g of pressure, the filament is applied to the plantar surface of the left hindpaw with sufficient force to bend slightly and left in place for 8 seconds or until the animal withdraws it's paw from the filament. In the absence of a paw withdrawal, the next highest calibrated filament is applied in a similar manner. In the presence of a paw withdrawal, the next lowest calibrated filament is applied. This up-down method continues until 4 responses are recorded after an initial positive response. The paw withdrawal threshold is calculated using Dixon non-parametric statistics.
The potency and efficacy of novel SNRT analogs in reversing mechanical hypersensitivity were determined in the L5/L6 spinal nerve ligation (SNL) model of neuropathic pain in rats. Compounds were administered intrathecal (i.t.) and the effect on paw withdrawal threshold was assessed at various time points following treatment.

In data set [3] the target is T3, dopamine transport (DAT) sites (Rattus norvegicus, UniProt P23977).
T3 construct: from tissue; host or cells: Sprague-Dawley rat striatum membranes
T3 sequence (P23977 whole entry): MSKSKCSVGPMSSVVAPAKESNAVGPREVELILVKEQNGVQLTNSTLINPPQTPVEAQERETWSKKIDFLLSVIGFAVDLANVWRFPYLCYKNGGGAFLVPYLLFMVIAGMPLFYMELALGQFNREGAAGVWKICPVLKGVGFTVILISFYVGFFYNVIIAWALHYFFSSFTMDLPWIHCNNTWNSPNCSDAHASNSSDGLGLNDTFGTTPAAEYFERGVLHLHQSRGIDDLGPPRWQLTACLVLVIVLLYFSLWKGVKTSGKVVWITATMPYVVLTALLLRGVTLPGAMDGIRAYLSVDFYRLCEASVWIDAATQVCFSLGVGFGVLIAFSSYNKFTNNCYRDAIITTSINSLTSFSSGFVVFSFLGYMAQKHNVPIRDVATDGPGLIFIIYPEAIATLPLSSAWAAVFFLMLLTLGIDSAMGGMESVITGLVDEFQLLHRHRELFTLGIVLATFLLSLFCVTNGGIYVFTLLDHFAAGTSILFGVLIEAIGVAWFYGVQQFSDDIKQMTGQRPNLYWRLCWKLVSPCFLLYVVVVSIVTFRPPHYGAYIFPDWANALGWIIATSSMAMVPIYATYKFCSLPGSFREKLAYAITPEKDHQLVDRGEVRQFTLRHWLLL
In words: DAT binding, displacement of [125I]RTI-55 in rat striatum membranes. As for the experimental part:
Frozen brains from Sprague-Dawley rats are obtained commercially and striata are dissected on ice. […] Tubes are incubated for 50 min at 25° C., and the reaction is terminated by rapid filtration with 3-5 ml of cold Tris buffer through Whatman GF/B glass fiber filters pre-soaked in Tris buffer containing 0.1% BSA for at least 1 h. Non-specific binding is determined in the presence of 1 μMWF-23. […]

Where [4] appears, read: [3H]nisoxetine displacement, rat brain membranes, Ki by Cheng-Prusoff, read-out: NET.
Setting [5] is: [3H]citalopram displacement, rat frontal cortex membranes, Ki by Cheng-Prusoff, read-out: SERT.
The mark [6] stands for this setting: [125I]RTI-55 displacement, rat striatum membranes, reported as IC50, read-out: DAT.

Where a name gives a salt, the structure may show the parent alone. Read-outs that look alike come from different tables or passages of the source.

T1 sequence (Q9WTR4 1-597): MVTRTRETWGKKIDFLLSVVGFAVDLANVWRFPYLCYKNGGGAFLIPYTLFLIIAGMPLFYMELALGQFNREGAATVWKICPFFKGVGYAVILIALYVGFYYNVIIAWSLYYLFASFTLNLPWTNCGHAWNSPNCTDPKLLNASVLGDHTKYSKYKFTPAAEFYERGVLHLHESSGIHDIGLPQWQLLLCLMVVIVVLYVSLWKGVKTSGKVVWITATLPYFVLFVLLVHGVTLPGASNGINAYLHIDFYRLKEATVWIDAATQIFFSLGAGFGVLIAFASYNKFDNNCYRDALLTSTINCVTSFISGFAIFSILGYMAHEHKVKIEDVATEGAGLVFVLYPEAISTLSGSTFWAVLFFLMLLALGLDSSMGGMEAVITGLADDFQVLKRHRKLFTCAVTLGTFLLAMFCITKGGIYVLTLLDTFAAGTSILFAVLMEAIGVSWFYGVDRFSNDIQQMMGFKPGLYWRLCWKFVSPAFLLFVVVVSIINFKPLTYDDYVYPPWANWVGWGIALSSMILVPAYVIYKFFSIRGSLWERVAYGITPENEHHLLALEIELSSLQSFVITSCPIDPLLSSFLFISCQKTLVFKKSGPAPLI

As for `CNCC1CC1(C(=O)OC)c1ccc(-c2ccccc2)cc1` (racemic) [HD-286, Methyl 1-([1,1′-biphenyl]-4-yl)-2-((methylamino)methyl)cyclopropanecarboxylate hydrochloride], the Ki is 315 ± 100 nM in data set [1] (setting [4]) and 4.85 ± 1 nM in data set [2] (setting [5]). Further, the Log-P in the data set “Log-P (Table 1)” stood at 3.54. For the same compound, the “anti-allodynic effect (in words)” value in the data set with SNL rats was “significantly lower efficacy”.
Turning to `CNCC1CC1(C(=O)OC)c1ccc(Cl)c(Cl)c1` (racemic) [HD-288, Methyl 1-(3,4-dichlorophenyl)-2-((methylamino)methyl)cyclopropanecarboxylate], the Ki in data set [1] (setting [4]) came out at 0.8 ± 0.02 nM; in data set [2] (setting [5]) it was 5.6 ± 0.39 nM. In addition, the Log-P in “Log-P (Table 1)” was 2.95. Moreover, in the data set on SNL rats (3 μg i.t.), the PWT after treatment came out at 24.9 ± 2.5 g. Besides, the “PWT before treatment (baseline)” value with SNL rats (before i.t. drug) stood at 2.9 ± 0.4 g. Moreover, the “anti-allodynic A50” value in the data set with SNL rats (i.t. administration) was 0.6 ± 0.3 µg. Also, the “anti-allodynic effect (in words)” value with SNL rats was “significantly greater than clonidine”.
For `Clc1cccc(Cl)c1N=C1NCCN1` [Clonidine, clonidine, reference compound], in the data set on SNL rats, the “anti-allodynic effect (in words)” value is “reversed mechanical allodynia”.
Take `CCN(CC)C(=O)C1(c2ccccc2)CC1CN` (stereo not drawn) [HD-283, Milnacipran, reference compound]: the Ki was determined as 23.8 ± 1.7 nM in data set [1] and 35.1 ± 4.4 nM in data set [2]. Moreover, the “transporter selectivity (in words)” value in data set [1] (NET versus SERT binding) is “non-selective”. In data set [3], the IC50 amounted to 1970 ± 230 nM. Further, the Log-P in “Log-P (Table 1)” stood at 1.91. Further, the “anti-allodynic effect (in words)” value in the data set with SNL rats is “reversed mechanical allodynia”.
With `CNC[C@@H]1C[C@]1(C(=O)OC)c1ccc(Br)c(Br)c1` [HD-329, (1R,2R)-methyl 1-(3,4-dibromophenyl)-2-((methylamino)methyl)cyclopropanecarboxylate], the Ki in data set [1] (setting [4]) worked out at 0.62 ± 0.12 nM; in data set [2] (setting [5]), 1.71 ± 0.05 nM. Further, the IC50 in data set [3] (setting [6]) was determined as 35.2 ± 4.6 nM. This compound gave a Log-P in the data set “Log-P (Table 1)” of 3.17.
On to `CNC[C@H]1C[C@@]1(C(=O)OC)c1ccc2ccccc2c1` [HD-330, (1S,2S)-methyl 2-((methylamino)methyl)-1-(naphthalen-2-yl)cyclopropanecarboxylate], for which the Ki in data set [1] (setting [4]) was found to be 16.4 ± 0.52 nM; in data set [2], 27 ± 3.4 nM. The IC50 in data set [3] (setting [6]) was found to be 313 ± 55 nM. Moreover, the Log-P in the data set “Log-P (Table 1)” was 2.82.
For `CNC[C@@H]1C[C@]1(C(=O)OC)c1ccc2ccccc2c1` [HD-331, (1R,2R)-methyl 2-((methylamino)methyl)-1-(naphthalen-2-yl)cyclopropanecarboxylate], in that order: 10.4 ± 0.89 nM, 15 ± 2.8 nM, 320 ± 51 nM and 2.82.
